Experimental findings from patent publication US7994209B2, “3-phenoxymethylpyrrolidine compounds” (Theravance, Inc., priority 2009, dated 2011) are described below.

One experiment addresses hSERT (Homo sapiens, UniProt P31645). Briefly: fluorescence-based serotonin reuptake inhibition assay (Tsuruda et al. 2010; data indicated by an asterisk). In kind it is cell-based. Also noted: expressed in transfected cells; host or cells: HEK-293. The note with it: fluorescence-based assay (values with asterisk), read-out: SERT pIC50 (converted).
Another experiment addresses hNET (Homo sapiens, UniProt P23975). Briefly: fluorescence-based norepinephrine reuptake inhibition assay (Tsuruda et al. 2010; data indicated by an asterisk). Also noted: expressed in transfected cells; host or cells: HEK-293. The note with it: norepinephrine reuptake inhibition, fluorescence-based assay (values with asterisk); read-out: NET pIC50 (converted). Type of experiment: cell-based.

Sequence of hNET (P23975 whole entry): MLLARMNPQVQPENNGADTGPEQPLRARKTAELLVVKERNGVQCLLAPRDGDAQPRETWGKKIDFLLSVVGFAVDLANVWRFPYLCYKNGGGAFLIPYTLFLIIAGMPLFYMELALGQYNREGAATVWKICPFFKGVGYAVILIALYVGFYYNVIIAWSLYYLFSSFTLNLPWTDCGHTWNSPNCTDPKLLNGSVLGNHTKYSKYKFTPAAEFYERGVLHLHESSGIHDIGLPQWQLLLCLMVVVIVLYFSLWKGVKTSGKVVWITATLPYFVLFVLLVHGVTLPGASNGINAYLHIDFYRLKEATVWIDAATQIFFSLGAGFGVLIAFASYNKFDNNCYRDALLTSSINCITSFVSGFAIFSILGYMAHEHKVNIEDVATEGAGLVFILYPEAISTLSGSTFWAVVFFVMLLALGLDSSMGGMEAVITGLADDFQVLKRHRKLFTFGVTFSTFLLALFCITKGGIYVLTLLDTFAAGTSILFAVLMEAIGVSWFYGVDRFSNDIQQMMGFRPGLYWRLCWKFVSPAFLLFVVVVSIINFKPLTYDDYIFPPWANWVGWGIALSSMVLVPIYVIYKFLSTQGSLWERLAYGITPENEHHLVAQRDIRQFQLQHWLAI
Sequence of hSERT (P31645 whole entry): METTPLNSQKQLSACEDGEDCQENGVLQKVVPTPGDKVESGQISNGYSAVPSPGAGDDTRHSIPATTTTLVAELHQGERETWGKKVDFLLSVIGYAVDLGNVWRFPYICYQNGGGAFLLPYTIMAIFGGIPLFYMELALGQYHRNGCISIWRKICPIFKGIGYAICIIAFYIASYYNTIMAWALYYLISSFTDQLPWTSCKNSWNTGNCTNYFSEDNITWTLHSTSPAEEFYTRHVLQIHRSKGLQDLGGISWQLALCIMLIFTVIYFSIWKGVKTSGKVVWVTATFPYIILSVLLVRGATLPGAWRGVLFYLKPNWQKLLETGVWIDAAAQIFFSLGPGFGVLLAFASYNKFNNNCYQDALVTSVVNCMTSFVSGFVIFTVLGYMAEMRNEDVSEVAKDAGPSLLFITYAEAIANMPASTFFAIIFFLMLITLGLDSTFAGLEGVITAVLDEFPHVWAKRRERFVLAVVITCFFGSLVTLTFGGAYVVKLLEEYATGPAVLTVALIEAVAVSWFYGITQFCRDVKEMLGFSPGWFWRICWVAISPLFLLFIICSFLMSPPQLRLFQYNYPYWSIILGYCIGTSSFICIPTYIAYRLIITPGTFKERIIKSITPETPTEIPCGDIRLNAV

As for `CCC[C@H](Oc1cccc(C)c1C)[C@H]1CCNC1` [Example 4-62, (S)-3-[(S)-1-(2,3-Dimethylphenoxy)butyl]pyrrolidine], the IC50 at hSERT and on hNET was not above 10 nM each time.

Take `CC(C)[C@@H](Oc1c(F)cc(Cl)cc1Cl)[C@H]1CCNC1` [Example 6-31, (S)-3-[(R)-1-(2,4-Dichloro-6-fluorophenoxy)-2-methylpropyl]pyrrolidine]: the IC50 at hSERT was not above 10 nM; at hNET, not above 100 nM.

For the compound `CC[C@@H](Oc1ccccc1Cl)[C@H]1CCNC1` [Example 2-24, (S)-3-[(R)-1-(2-Chlorophenoxy)propyl]pyrrolidine], the IC50 at hSERT and on hNET was not above 100 nM in each case.

`CC(C)C[C@H](Oc1cccc(C(F)(F)F)c1F)[C@H]1CCNC1` [Example 10-21, (S)-3-[(S)-1-(2-Fluoro-3-trifluoromethylphenoxy)-3-methylbutyl]pyrrolidine]: the IC50 on hSERT and at hNET was not above 10 nM throughout.

As for `CC(C)C[C@@H](Oc1ccc(Cl)c(F)c1)[C@H]1CCNC1` [Example 10-71, (S)-3-[(R)-1-(4-Chloro-3-fluorophenoxy)-3-methylbutyl]pyrrolidine], the IC50 at hSERT and at hNET was not above 10 nM each time.

Consider `CC(C)C[C@H](Oc1ccc(Cl)c(Cl)c1)[C@H]1CCNC1` [Example 10-74, (S)-3-[(S)-1-(3,4-Dichlorophenoxy)-3-methylbutyl]pyrrolidine], for which the IC50 at hSERT and on hNET was not above 10 nM throughout.

On to `CCC[C@H](Oc1c(F)cc(Cl)cc1F)[C@H]1CCNC1` [Example 4-53, (S)-3-[(S)-1-(4-Chloro-2,6-difluorophenoxy)butyl]pyrrolidine], for which the IC50 on hSERT and at hNET was not above 10 nM each time.

Turning to `CC[C@@H](Oc1c(F)ccc(OC)c1Cl)[C@H]1CCNC1` [Example 2-45, (S)-3-[(R)-1-(2-Chloro-6-fluoro-3-methoxyphenoxy)propyl]pyrrolidine], the IC50 at hSERT and at hNET was not above 10 nM each time.

In the case of `CC(C)[C@H](Oc1cccc(Cl)c1Cl)[C@@H]1CCNC1` [Example 6-16, (R)-3-[(S)-1-(2,3-Dichlorophenoxy)-2-methylpropyl]pyrrolidine], the IC50 on hSERT and on hNET was not above 100 nM in each case.

In the case of `CC(C)C[C@H](Oc1c(F)ccc(Cl)c1F)[C@H]1CCNC1` [Example 10-60, (S)-3-[(S)-1-(3-Chloro-2,6-difluorophenoxy)-3-methylbutyl]pyrrolidine], the IC50 at hSERT and at hNET was not above 10 nM throughout.

For `Fc1ccc(OC(C2CCCC2)C2CCNC2)cc1` (stereo not drawn) [Example 18-12, 3-[Cyclopentyl-(4-fluorophenoxy)methyl]pyrrolidine], the IC50 at hSERT and on hNET was not above 100 nM throughout.

In the case of `Cc1cc(O[C@@H](C2CC2)[C@H]2CCNC2)cc(C)c1Cl` [Example 16-101, (S)-3-[(S)-(4-Chloro-3,5-dimethylphenoxy)cyclopropylmethyl]pyrrolidine], the IC50 at hSERT was not above 10 nM; on hNET, not above 100 nM.

As for `CC(C)[C@@H](Oc1ccc(Cl)c(Cl)c1F)[C@H]1CCNC1` [Example 6-8, (S)-3-[(R)-1-(3,4-Dichloro-2-fluorophenoxy)-2-methylpropyl]pyrrolidine], the IC50 on hSERT is not above 10 nM; on hNET, not above 100 nM.

Turning to `CC(C)[C@@H](Oc1ccc(Cl)c(F)c1)[C@H]1CCNC1` [Example 6-57, (S)-3-[(R)-1-(4-Chloro-3-fluorophenoxy)-2-methylpropyl]pyrrolidine], the IC50 at hSERT was not above 10 nM; on hNET, not above 100 nM.

Take `Clc1ccc(OC(C2CCCC2)C2CCNC2)cc1` (stereo not drawn) [Example 18-11, 3-[(4-Chlorophenoxy)cyclopentylmethyl]pyrrolidine]: the values for the IC50 on hSERT and on hNET were not above 10 nM and not above 100 nM, respectively.

Take `CC(C)[C@@H](Oc1ccc(Cl)c(F)c1)[C@@H]1CCNC1` [Example 6-58, (R)-3-[(R)-1-(4-Chloro-3-fluorophenoxy)-2-methylpropyl]pyrrolidine]: the IC50 is not above 10 nM at hSERT and not above 100 nM on hNET.

As to `COc1cc(Cl)ccc1O[C@H](C(C)C)[C@@H]1CCNC1` [Example 6-48, (R)-3-[(R)-1-(4-Chloro-2-methoxyphenoxy)-2-methylpropyl]pyrrolidine], the IC50 is not above 10 nM at hSERT and not above 100 nM on hNET.

Regarding `CCC[C@H](Oc1cccc(Cl)c1F)[C@H]1CCNC1` [Example 4-48, (S)-3-[(S)-1-(3-Chloro-2-fluorophenoxy)butyl]pyrrolidine], the IC50 on hSERT was not above 100 nM; at hNET, not above 10 nM.

For `Cc1cc(Cl)ccc1O[C@H](C(C)C)[C@@H]1CCNC1` [Example 6-46, (R)-3-[(R)-1-(4-Chloro-2-methylphenoxy)-2-methylpropyl]pyrrolidine], the IC50 at hSERT and on hNET was not above 100 nM in each case.

Regarding `COc1ccc(F)c(O[C@H](C(C)C)[C@@H]2CCNC2)c1Cl` [Example 6-37, (R)-3-[(R)-1-(2-Chloro-6-fluoro-3-methoxyphenoxy)-2-methylpropyl]pyrrolidine], the IC50 at hSERT and at hNET was not above 10 nM in each case.

Regarding `CC(C)C[C@H](Oc1ccc(Cl)c(F)c1)[C@H]1CCNC1` [Example 10-72, (S)-3-[(S)-1-(4-Chloro-3-fluorophenoxy)-3-methylbutyl]pyrrolidine], the IC50 on hSERT and on hNET was not above 10 nM throughout.

Turning to `CC(C)[C@H](Oc1c(F)cc(Cl)cc1Cl)[C@@H]1CCNC1` [Example 6-32, (R)-3-[(S)-1-(2,4-Dichloro-6-fluorophenoxy)-2-methylpropyl]pyrrolidine], the figures for the IC50 on hSERT and on hNET were not above 100 nM and not above 316 nM, respectively.

In the case of `CCC[C@@H](Oc1cccc(F)c1F)[C@H]1CCNC1` [Example 4-44, (S)-3-[(R)-1-(2,3-Difluorophenoxy)butyl]pyrrolidine], the IC50 on hSERT is not above 100 nM; at hNET it was not above 10 nM.

Turning to `CCC[C@@H](Oc1c(Cl)ccc(Cl)c1Cl)[C@H]1CCNC1` [Example 4-26, (S)-3-[(R)-1-(2,3,6-Trichlorophenoxy)butyl]pyrrolidine], the IC50 at hSERT and on hNET was not above 10 nM in each case.

Turning to `CC[C@@H](Oc1ccc(Cl)c(F)c1)[C@H]1CCNC1` [Example 2-6, (S)-3-[(R)-1-(4-Chloro-3-fluorophenoxy)propyl]pyrrolidine], the results for the IC50 at hSERT and on hNET were not above 10 nM and not above 100 nM, respectively.

For `CC[C@H](Oc1cc(Cl)cc(OC)c1)[C@H]1CCNC1` [Example 2-20, (S)-3-[(S)-1-(3-Chloro-5-methoxyphenoxy)propyl]pyrrolidine], the IC50 on hSERT and on hNET was not above 100 nM in each case.

`CC(C)[C@H](Oc1cc(Cl)cc(Cl)c1)[C@@H]1CCNC1` [Example 6-69, (R)-3-[(S)-1-(3,5-Dichlorophenoxy)-2-methylpropyl]pyrrolidine]: the IC50 on hSERT and at hNET was not above 100 nM throughout.

On to `CC(C)[C@@H](Oc1cc(Cl)ccc1Cl)[C@H]1CCNC1` [Example 6-26, (S)-3-[(R)-1-(2,5-Dichlorophenoxy)-2-methylpropyl]pyrrolidine], for which the IC50 on hSERT and at hNET was not above 100 nM each time.

Take `Cc1cc(O[C@H](CC(C)C)[C@H]2CCNC2)ccc1Cl` [Example 10-76, (S)-3-[(R)-1-(4-Chloro-3-methylphenoxy)-3-methylbutyl]pyrrolidine]: the IC50 on hSERT was not above 10 nM; at hNET it was not above 100 nM.

In the case of `CCC[C@@H](Oc1ccc(Cl)cc1C)[C@@H]1CCNC1` [Example 4-61, (R)-3-[(R)-1-(4-Chloro-2-methylphenoxy)butyl]pyrrolidine], the IC50 on hSERT and on hNET was not above 100 nM throughout.

On to `CC(C)[C@H](Oc1cccc2ccccc12)[C@@H]1CCNC1` [Example 14-4, (R)-3-[(S)-2-Methyl-1-(naphthalen-1-yloxy)propyl]pyrrolidine], for which the IC50 on hSERT is not above 10 nM; at hNET, not above 100 nM.

With `CC(C)[C@@H](Oc1cc(F)cc(Cl)c1)[C@@H]1CCNC1` [Example 6-61, (R)-3-[(R)-1-(3-Chloro-5-fluorophenoxy)-2-methylpropyl]pyrrolidine], the IC50 on hSERT and at hNET was not above 100 nM throughout.

`CC(C)[C@@H](Oc1cccc2ccccc12)[C@H]1CCNC1` [Example 14-6, (S)-3-[(R)-2-Methyl-1-(naphthalen-1-yloxy)propyl]pyrrolidine]: the IC50 at hSERT and at hNET was not above 10 nM throughout.

Consider `CCC[C@@H](Oc1cccc(Cl)c1F)[C@H]1CCNC1` [Example 4-46, (S)-3-[(R)-1-(3-Chloro-2-fluorophenoxy)butyl]pyrrolidine], for which the IC50 on hSERT is not above 100 nM; on hNET, not above 10 nM.

Regarding `Fc1cc(Cl)cc(O[C@@H](C2CC2)[C@H]2CCNC2)c1Cl` [Example 16-57, (S)-3-[(S)cyclopropyl-(2,5-dichloro-3-fluorophenoxy)methyl]pyrrolidine], the IC50 at hSERT and on hNET was not above 100 nM throughout.

Consider `CC(C)C[C@H](Oc1c(F)ccc(Cl)c1Cl)[C@H]1CCNC1` [Example 10-65, (S)-3-[(S)-1-(2,3-Dichloro-6-fluorophenoxy)-3-methylbutyl]pyrrolidine], for which the IC50 at hSERT and on hNET was not above 10 nM throughout.

Take `Cc1ccc(OC(C2CCCC2)C2CCNC2)c(Cl)c1` (mixture of isomers) [Example 17, 3-[(2-Chloro-4-methylphenoxy)cyclopentylmethyl]pyrrolidine]: the IC50 on hSERT and on hNET was not above 10 nM each time.

Turning to `CC(C)C[C@H](Oc1c(F)ccc(F)c1Cl)[C@H]1CCNC1` [Example 10-63, (S)-3-[(S)-1-(2-Chloro-3,6-difluorophenoxy)-3-methylbutyl]pyrrolidine], the IC50 on hSERT and at hNET was not above 10 nM in each case.

With `CC[C@H](Oc1cc(F)cc(Cl)c1)[C@H]1CCNC1` [Example 2-10, (S)-3-[(S)-1-(3-Chloro-5-fluorophenoxy)propyl]pyrrolidine], the IC50 at hSERT is not above 100 nM; at hNET, not above 10 nM.
